Active and inactive are the calls of the source.
Experiments:
[1] = target: Protein-tyrosine kinase 2-beta (Homo sapiens, UniProt Q14289);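 further: potency of inhibitors of PYK2 kinase phosphorylation of poly-GT substrate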
[2] = target: Peroxisome proliferator-activated receptor gamma/Nuclear receptor corepressor 2 (Homo sapiens, UniProt P37231+Q9Y618); experiment: Counterscreen for NR2E3 inverse agonists: TR-FRET-based biochemical high throughput dose response assay to identify inverse agonists of the interaction between peroxisome proliferator-activated receptor gamma (PPARg) and nuclear receptor co-repressor 2 (NCOR2).; format: functional
[3] = target: Photoreceptor-specific nuclear receptor (Homo sapiens, UniProt Q9Y5X4); experiment: ligands suppressing NR2E3 nuclear receptor activity – biochemical, TR-FRET, dose response (AID 463256); format: functional
[4] = target: Sphingosine 1-phosphate receptor 2 (Homo sapiens, UniProt O95136); experiment: Dose Response Cell-Based Assay for Agonists of the Sphingosine 1-Phosphate Receptor 2 (S1P2): Purchased Analogues. [Related pubchem assays: 1192, 373, 439 ]; format: functional
[5] = target: Sphingosine 1-phosphate receptor 1 (Homo sapiens, UniProt P21453); experiment: Dose Response Cell-Based Assay for Agonists of the Sphingosine 1-Phosphate Receptor 1 (S1P1): Purchased Analogues. [Related pubchem assays: 1192, 373, 439 ]; format: functional
[6] = target: Sphingosine 1-phosphate receptor 3 (Homo sapiens, UniProt Q99500); experiment: Dose Response Cell-Based Assay for Agonists of the Sphingosine 1-Phosphate Receptor 3 (S1P3): Purchased Analogues. [Related pubchem assays: 373, 439 ]; format: functional
[7] = viability of uninfected HEp-2 cells – cell-based, HTS, cytotoxicity control for RSV inhibitor project, dose response (AID 2410); format: functional; conditions: human respiratory syncytial virus
[8] = Trypanosoma cruzi growth suppression in host cells – NIH3T3 host cells, beta-gal luminescence, confirmation (AID 2044); format: functional, cell-based;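 further: intracellular parasites grown in NIH/3T3 mouse fibroblasts as host cells; luminescent beta-galactosidase reporter signal from transgenic T. cruzi replicating inside host cells; inhibitors lower the luminescence signal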
[9] = Luminescence-based dose response cell-based high throughput screening assay for cytotoxic compounds using the IEC-6 intestinal epithelial cell line. [Related pubchem assays: 1858 (Summary AID.), 1825 (Counterscreen.), 1907 (Confirmation screen.)]; format: functional
[10] = NIH3T3 cell viability loss – ATP luminescence, mouse fibroblasts, counter-screen, dose response (AID 2010); format: functional, cell-based;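 further: cells exposed to compound for about 90 hours before reading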
[11] = target: T1, Rac GTPase-activating protein 1 (Homo sapiens, UniProt Q9H0H5); experiment: blockers of MgcRacGAP-driven Rac1 GTP hydrolysis – biochemical, ADP Hunter fluorescence, primary and confirmatory, confirmation (AID 624330); format: functional
T1 sequence (Q9H0H5 whole entry): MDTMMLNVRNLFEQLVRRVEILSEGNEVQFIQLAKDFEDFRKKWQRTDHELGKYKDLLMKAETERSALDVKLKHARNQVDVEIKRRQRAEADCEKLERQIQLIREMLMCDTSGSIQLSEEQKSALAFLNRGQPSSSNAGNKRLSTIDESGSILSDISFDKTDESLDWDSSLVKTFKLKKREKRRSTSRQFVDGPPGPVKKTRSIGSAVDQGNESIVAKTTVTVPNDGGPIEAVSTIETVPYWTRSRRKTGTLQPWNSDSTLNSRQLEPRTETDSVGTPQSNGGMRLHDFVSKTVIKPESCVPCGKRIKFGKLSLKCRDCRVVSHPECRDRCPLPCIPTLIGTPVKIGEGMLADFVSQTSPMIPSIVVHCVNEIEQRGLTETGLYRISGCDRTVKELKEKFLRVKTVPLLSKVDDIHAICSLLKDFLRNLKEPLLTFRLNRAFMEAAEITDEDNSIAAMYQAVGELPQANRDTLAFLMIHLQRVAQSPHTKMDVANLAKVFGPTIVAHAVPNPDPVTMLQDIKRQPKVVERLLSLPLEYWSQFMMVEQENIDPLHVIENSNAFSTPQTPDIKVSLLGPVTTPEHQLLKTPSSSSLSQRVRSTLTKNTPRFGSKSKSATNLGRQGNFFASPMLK

Chain of Photoreceptor-specific nuclear receptor (Q9Y5X4 whole entry): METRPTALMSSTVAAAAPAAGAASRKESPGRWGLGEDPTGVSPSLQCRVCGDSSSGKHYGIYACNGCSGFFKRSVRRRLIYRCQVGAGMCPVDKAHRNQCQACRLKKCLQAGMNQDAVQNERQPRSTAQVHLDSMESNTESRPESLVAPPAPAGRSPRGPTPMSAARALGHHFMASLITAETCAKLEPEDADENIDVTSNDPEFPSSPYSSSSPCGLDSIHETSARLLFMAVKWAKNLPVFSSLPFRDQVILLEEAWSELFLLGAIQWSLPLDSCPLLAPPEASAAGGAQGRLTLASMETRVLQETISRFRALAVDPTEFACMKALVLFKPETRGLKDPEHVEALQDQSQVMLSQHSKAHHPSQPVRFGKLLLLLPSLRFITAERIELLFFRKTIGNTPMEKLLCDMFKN
Chain of Sphingosine 1-phosphate receptor 2 (O95136 whole entry): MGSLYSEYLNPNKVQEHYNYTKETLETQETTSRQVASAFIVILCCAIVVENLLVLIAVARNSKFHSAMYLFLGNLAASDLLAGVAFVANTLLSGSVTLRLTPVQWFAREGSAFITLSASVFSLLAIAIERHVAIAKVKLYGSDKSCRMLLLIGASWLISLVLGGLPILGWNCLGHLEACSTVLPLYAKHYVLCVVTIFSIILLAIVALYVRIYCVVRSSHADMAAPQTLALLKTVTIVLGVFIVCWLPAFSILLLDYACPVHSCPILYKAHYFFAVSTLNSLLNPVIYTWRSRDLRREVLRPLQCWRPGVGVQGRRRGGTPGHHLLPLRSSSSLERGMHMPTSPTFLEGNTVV
Chain of Peroxisome proliferator-activated receptor gamma/Nuclear receptor corepressor 2 (P37231 whole entry): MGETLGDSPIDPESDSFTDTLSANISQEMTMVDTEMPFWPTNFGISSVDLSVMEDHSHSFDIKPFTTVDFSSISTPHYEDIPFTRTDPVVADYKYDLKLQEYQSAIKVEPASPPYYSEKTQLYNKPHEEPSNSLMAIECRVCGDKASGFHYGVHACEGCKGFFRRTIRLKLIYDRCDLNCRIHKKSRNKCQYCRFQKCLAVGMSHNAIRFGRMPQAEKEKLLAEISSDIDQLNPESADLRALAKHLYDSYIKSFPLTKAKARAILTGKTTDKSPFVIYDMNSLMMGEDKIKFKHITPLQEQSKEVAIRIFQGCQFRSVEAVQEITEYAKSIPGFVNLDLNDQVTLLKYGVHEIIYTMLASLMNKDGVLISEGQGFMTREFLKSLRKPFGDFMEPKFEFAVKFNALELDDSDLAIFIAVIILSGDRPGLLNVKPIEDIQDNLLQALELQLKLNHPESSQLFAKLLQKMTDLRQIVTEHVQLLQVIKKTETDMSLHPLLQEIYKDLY
Chain of Peroxisome proliferator-activated receptor gamma/Nuclear receptor corepressor 2 (Q9Y618 whole entry): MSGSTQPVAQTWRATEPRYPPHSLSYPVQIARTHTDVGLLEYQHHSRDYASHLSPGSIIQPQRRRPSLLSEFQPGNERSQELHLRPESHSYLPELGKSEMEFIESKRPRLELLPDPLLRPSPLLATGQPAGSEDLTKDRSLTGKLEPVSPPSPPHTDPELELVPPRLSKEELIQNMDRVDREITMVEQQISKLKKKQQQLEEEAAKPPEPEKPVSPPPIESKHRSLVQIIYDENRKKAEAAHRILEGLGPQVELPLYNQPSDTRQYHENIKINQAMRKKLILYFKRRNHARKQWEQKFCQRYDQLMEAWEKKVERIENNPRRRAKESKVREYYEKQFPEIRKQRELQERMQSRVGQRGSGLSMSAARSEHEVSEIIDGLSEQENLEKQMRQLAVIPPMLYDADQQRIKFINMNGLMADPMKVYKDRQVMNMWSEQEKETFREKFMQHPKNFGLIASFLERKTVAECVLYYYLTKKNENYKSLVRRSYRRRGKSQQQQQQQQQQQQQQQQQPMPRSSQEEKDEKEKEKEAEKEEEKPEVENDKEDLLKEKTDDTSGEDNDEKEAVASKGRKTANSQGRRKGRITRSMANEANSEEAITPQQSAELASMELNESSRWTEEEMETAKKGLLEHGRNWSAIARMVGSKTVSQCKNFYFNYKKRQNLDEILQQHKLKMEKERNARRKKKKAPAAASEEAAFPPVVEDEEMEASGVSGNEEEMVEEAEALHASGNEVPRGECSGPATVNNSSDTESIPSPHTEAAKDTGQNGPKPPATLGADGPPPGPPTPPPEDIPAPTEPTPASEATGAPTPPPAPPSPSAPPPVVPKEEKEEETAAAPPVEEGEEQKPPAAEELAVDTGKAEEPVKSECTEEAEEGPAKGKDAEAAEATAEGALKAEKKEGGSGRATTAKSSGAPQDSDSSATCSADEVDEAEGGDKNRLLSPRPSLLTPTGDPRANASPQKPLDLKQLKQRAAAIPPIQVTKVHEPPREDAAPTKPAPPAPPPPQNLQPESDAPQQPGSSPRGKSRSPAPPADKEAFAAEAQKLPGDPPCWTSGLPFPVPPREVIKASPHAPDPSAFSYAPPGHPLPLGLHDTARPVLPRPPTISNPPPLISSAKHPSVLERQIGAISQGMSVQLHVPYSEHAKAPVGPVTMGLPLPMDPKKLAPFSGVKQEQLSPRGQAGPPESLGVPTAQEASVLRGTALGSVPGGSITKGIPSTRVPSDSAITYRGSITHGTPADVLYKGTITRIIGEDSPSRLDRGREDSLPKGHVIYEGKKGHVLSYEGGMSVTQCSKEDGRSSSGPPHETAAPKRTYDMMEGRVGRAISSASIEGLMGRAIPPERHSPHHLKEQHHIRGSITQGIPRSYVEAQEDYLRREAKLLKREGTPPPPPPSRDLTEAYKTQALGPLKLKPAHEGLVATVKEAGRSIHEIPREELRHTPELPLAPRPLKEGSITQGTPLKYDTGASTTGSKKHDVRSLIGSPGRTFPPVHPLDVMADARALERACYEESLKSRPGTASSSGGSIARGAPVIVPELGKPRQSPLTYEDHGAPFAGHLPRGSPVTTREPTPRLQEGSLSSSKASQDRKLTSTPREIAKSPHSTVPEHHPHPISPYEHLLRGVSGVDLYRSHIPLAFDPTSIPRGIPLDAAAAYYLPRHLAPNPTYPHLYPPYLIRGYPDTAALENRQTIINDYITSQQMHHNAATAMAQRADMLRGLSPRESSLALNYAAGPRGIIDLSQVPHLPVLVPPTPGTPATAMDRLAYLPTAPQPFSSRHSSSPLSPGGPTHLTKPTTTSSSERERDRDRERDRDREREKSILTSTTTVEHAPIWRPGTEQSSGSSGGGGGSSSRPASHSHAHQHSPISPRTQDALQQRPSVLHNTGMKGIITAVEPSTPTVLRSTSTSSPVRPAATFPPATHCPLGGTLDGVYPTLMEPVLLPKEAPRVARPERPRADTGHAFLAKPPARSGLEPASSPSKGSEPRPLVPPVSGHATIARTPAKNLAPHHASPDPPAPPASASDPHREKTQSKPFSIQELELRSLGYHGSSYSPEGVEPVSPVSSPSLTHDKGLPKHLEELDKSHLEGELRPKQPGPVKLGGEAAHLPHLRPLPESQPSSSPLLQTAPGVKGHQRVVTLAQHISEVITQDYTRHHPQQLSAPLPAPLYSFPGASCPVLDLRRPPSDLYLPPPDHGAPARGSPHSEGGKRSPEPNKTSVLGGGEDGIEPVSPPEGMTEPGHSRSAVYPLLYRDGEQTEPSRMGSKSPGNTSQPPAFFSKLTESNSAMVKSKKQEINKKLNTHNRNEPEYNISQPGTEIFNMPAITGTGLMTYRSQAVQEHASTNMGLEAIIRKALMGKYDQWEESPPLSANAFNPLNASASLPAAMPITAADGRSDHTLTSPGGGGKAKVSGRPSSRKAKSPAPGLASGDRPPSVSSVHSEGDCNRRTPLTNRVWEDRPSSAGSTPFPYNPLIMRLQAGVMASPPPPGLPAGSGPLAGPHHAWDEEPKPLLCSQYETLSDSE
Chain of Sphingosine 1-phosphate receptor 1 (P21453 whole entry): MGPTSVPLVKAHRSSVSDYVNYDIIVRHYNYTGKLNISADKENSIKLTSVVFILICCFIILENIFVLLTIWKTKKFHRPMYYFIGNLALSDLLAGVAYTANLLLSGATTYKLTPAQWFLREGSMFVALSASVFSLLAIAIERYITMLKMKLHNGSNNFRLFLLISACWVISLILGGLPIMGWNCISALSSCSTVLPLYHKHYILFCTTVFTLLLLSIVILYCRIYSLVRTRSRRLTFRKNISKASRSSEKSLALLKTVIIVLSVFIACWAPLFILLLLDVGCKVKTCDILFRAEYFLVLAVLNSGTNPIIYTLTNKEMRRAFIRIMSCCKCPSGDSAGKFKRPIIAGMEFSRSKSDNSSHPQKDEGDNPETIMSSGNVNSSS
Chain of Sphingosine 1-phosphate receptor 3 (Q99500 whole entry): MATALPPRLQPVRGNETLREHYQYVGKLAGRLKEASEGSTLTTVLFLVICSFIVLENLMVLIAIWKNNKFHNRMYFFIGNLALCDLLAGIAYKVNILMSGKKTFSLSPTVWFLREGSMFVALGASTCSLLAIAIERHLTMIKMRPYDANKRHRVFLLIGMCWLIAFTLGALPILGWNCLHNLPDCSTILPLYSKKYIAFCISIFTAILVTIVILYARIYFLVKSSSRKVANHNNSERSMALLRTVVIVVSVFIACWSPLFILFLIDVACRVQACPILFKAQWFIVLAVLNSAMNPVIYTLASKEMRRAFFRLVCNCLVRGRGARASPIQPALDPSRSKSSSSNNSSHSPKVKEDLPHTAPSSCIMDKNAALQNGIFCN

## NC(=O)c1sc2nc3c(c(-c4ccco4)c2c1N)CCC3
[1]
  IC50: 10.2 µM (not active)

## COc1ccc(C(=O)NCc2ccc(-c3nc4ccccc4s3)cc2)cc1OC
[2]
  IC50: 6.27 µM (active)
[3]
  IC50: 5.83 µM (active)

## Cc1ccc(-c2cc(C(=O)NC3CCCCC3)no2)cc1
[4]
  EC50: > 10 µM (not active)
[5]
  EC50: 0.194 µM (active)
[6]
  EC50: > 50 µM (not active)

## O=C(N/N=C/c1ccc(O)cc1)Nc1cccc2nsnc12
[7]
  CC50: > 50 µM (active)
[8]
  EC50: 0.356 µM (active)
[9]
  IC50: 2.51 µM (active)
[10]
  EC50: 10.8 µM (active)
[11]
  IC50: 63.5 µM (active)

Source: ChEMBL document CHEMBL1201862, “PubChem BioAssay data set” (2004)
